Laboratory results: publication PMC3602187, “From Design to Screening: A New Antimicrobial Peptide Discovery Pipeline” (PLoS ONE, 2013)

Test system: Listeria innocua 33090
Experiment: colony overlay assay of peptide-secreting E. coli clones (library screening and re-test)
Format: cell-based
Set-up: key: higher activity group (H); equal activity group (E); lower activity group (L)
Conditions: library screening; selected colonies pooled by zone size; peptides identified by 454 sequencing, full-length sequences with minimum 20 reads
Method: For the in vivo production of AMPs, we have employed an E. coli expression system that relies on periplasmic-expression of recombinant peptides in a host cell that lacks the lpo membrane protein, thus releasing the peptides present in the periplasmic space outside the cells. When the producer cells are grown into colonies on a solid substrate, it leads to accumulation of the recombinant peptides around the colony and allows for easy library screening. The screening assay used in this study was a modified version of the standard agar diffusion method as previously described. Library-transformed E. coli colonies are overlaid with a tester strain and incubated overnight to allow for peptide expression and tester strain growth. Next day, the plates are inspected for the formation of clear growth inhibition zones around E. coli colonies, which is an indication of active AMP production by the host colony.
For the construction of Pln-423 mutant library in E. coli, the expression system that consists of a periplasmic-leaky E. coli strain JE5505 and the expression plasmid pFLAG-CTS was employed for direct screening of peptide activities. It should be noted here that this plasmid contains ompA secretion signal sequence and cleavage of this sequence results in a serine residue at the N-terminal of all mature peptides. A total of 1.0×10^5 colonies, approximately 8-fold coverage of the library, were screened against Listeria innocua 33090 in five separate screening experiments. L. innocua was previously deemed as a suitable indicator for pathogenic L. monocytogenes displaying similar bacteriocin sensitivity, therefore it was used as a surrogate strain throughout this study. The selection process involved two criteria; 1) the size of the each inhibition zone was compared to that of wild-type Pln-423 as a correlation to anti-listerial activity level, 2) when several colonies formed inhibition zones that are very similar in size and character, only a few from each group were selected. The colonies were pooled into three groups based on their activities, giving 43 clones in a higher activity group (H), 81 clones in an equal activity group (E), and 241 clones in a lower activity group (L). Their plasmids were extracted from each activity group and analyzed by both Sanger and 454 high-throughput sequencing to identify peptide sequences.
These clones were also re-tested by colony overlay assay to compare their activities to wild-type Pln-423 based on the size of the inhibition zone around each clone (Figure 2-A). Based on this assay, all ten plantaricin mutants formed larger inhibition zones (10.3±0.5 to 11.4±0.3 mm zone diameter) compared to wild-type Pln-423 (6.2±0.2 mm) against L. innocua 33090. Out of those ten, three clones have a single mutation and […] clones have two mutations and the remaining single clone has three mutations. […] Positions like Ser23, Ser27, His28, and Lys36 were commonly mutated with similar amino acids indicating their potential role on higher peptide activity.
The screening method used in this study was a modified version of the standard colony overlay method as previously described. All the chemicals and growth media supplements were obtained from either Sigma-Aldrich or Fisher Scientific unless otherwise stated. Transformed E. coli JE5505 cells were diluted to 3000–5000 cfu (determined empirically prior to screening by plating serial dilutions of E. coli suspensions of a known absorbance and counting the colonies after incubation) in 25 ml LB soft agar (0.8%, 45°C) per screening plate and poured into 150 mm petri dishes. Once the media was solidified, they were overlaid with 10 ml LB soft agar (45°C) and incubated at 37°C for 24 h for host-colony formation. Next day, these plates were re-overlaid with 10 ml TSB soft agar containing 1 mM IPTG and the indicator strain Listeria innocua ATCC 33090 (diluted to OD600 = 0.03). […]

| Substance | activity group by size of inhibition zone compared to wild-type Pln-423 |
| --- | --- |
| KYYGNGVTCGKHSCSVNWGQAFSCSVSHLANFGMGEC* [Pep-2_10826] | H |
| KYYGNGVTCGKHSCSVNWGQAFSCSVSHLANFGMGYC* [Pep-2_10827] | H |
| KYYGNGVTCGKHSCSVNWGQAFSCSVSHLANFGRGKC* [Pep-1_97] | L |
| KYYGNGVTCGKHSCSVNWGQAFSCSVSHLANFGSGKC* [Pep-1_99] | E |
| KYYGNGVTCGKHSCSVNWGQAFSCSVSHLANFGWGKC* [Pep-1_102] | L |
| KYYGNGVTCGKHSCSVNWGQAFSCSVSHLANFSHGKC* [GROUP L-UM-18] | L |
| KYYGNGVTCGKHSCSVNWGQAFSCSVSHLANGGHGKC* [Pep-1_89] | L |
| KYYGNGVTCGKHSCSVNWGQAFSCSVSHLANIGHGEC* [Pep-2_11890] | L |
| KYYGNGVTCGKHSCSVNWGQAFSCSVSHLANMGHGKC* [Pep-1_88] | H |
| KYYGNGVTCGKHSCSVNWGQAFSCSVSHLAWFGHGHC* [Pep-2_9097] | L |
| KYYGNGVTCGKHSCSVNWGQAFSCSVSHLAWFGHGKC* [Pep-1_84] | L |
| KYYGNGVTCGKHSCSVNWGQAFSCSVSHMANFGHGKC* [Pep-1_70] | L |
| KYYGNGVTCGKHSCSVNWGQAFSCSVSHWANFGHGKC* [GROUP L-UM-32] | L |
| KYYGNGVTCGKHSCSVNWGQAFSCSVSILANFGHGKC* [GROUP L-UM-6] | L |
| KYYGNGVTCGKHSCSVNWGQAFSCSVSKLAHFGHGKC* [Pep-2_8515] | L |
| KYYGNGVTCGKHSCSVNWGQAFSCSVSKMANFGHGKC* [Pep-2_7543] | L |
| KYYGNGVTCGKHSCSVNWGQAFSCSVSNLANFGHGCC* [Pep-2_6834] | L |
| KYYGNGVTCGKHSCSVNWGQAFSCSVSNLANFGHGKC* [Pep-1_63] | E |
| KYYGNGVTCGKHSCSVNWGQAFSCSVSNLANFGHGRC* [Pep-2_6829] | L |

| Substance | activity group by size of inhibition zone compared to wild-type Pln-423 |
| --- | --- |
| KYYGNGVTCGKHSCSVNWGQAFSCSVSNLANFGRGKC* [Pep-2_6817] | L |
| KYYGNGVTCGKHSCSVNWGQAFSCSVSRLAAFGHGKC* [Pep-2_6587] | L |
| KYYGNGVTCGKHSCSVNWGQAFSCSVSRLANFGEGKC* [Pep-2_6602] | H |
| KYYGNGVTCGKHSCSVNWGQAFSCSVSRLANFGHGKC* [Pep-1_61] | E and H |
| KYYGNGVTCGKHSCSVNWGQAFSCSVSRVANFGHGKC* [Pep-2_6574] | L |
| KYYGNGVTCGKHSCSVNWGQAFSCSVSSLANFGHGKC* [GROUP E-UM-3] | E |
| KYYGNGVTCGKHSCSVNWGQAFSCSVSSLANFGHGLC* [Pep-2_12081] | E |
| KYYGNGVTCGKHSCSVNWGQAFSCSVSVLANFGHGKC* [Pep-1_64] | E |
| KYYGNGVTCGKHSCSVNWGQAFSCSVSVLANFGHGNC* [Pep-2_6939] | L |
| KYYGNGVTCGKHSCSVNWGQAFSCSVSVLANFGHNKC* [Pep-2_6933] | L |
| KYYGNGVTCGKHSCSVNWGQAFSCSVSVLANFGNGKC* [Pep-2_6927] | H |
| KYYGNGVTCGKHSCSVNWGQAFSCSVSWLANFGHGKC* [GROUP L-UM-12] | L |
| KYYGNGVTCGKHSCSVNWGQAFSCSVSWLANFGSGKC* [Pep-2_10680] | L |
| KYYGNGVTCGKHSCSVNWGQAFSCSVTHIANFGHGKC* [Pep-2_6142] | L |
| KYYGNGVTCGKHSCSVNWGQAFSCSVTHLANFGHAKC* [Pep-2_6179] | E |
| KYYGNGVTCGKHSCSVNWGQAFSCSVTHLANFGHGKC* [Pep-1_57] | L and E |
| KYYGNGVTCGKHSCSVNWGQAFSCSVTHLANFGHGRC* [Pep-2_6181] | E |
| KYYGNGVTCGKHSCSVNWGQAFSCSVTHLANFGLGKC* [Pep-2_6172] | E |
| KYYGNGVTCGKHSCSVNWGQAFSCSVTHLASFGHGKC* [Pep-2_6153] | L |

| Substance | activity group by size of inhibition zone compared to wild-type Pln-423 |
| --- | --- |
| KYYGNGVTCGKHSCSVNWGQAFSCSVTILANFGHGKC* [Pep-2_6136] | L |
| KYYGNGVTCGKHSCSVNWGQAFSCSVVHIANFGHGKC* [Pep-2_6250] | H |
| KYYGNGVTCGKHSCSVNWGQAFSCSVVHLANFGHGKC* [Pep-1_58] | L and E |
| KYYGNGVTCGKHSCSVNWGQAFSCSVVHLVNFGHGKC* [Pep-2_6256] | L |
| KYYGNGVTCGKHSCSVNWGQAFSCSWSHLANYGHGKC* [Pep-2_5835] | L |
| KYYGNGVTCGKHSCSVNWGQAFSCTVEHLANFGHGKC* [Pep-2_6015] | E and H |
| KYYGNGVTCGKHSCSVNWGQAFSCTVSHLANFGHGKC* [GROUP L-UM-28] | L |
| KYYGNGVTCGKHSCSVNWGQAFSCTVSNLANFGHGKC* [Pep-2_6771] | L and E and H |
| KYYGNGVTCGKHSCSVNWGQAFSCVVRHLANFGHGKC* [Pep-2_4939] | L |
| KYYGNGVTCGKHSCSVNWGQAFSCVVSHIANFGHGKC* [Pep-2_4954] | L |
| KYYGNGVTCGKHSCSVNWGQAFSCVVSHLANFGHGKC* [Pep-1_46] | L |
| KYYGNGVTCGKHSCSVNWGQAFSCVVSHLANFGHGTC* [Pep-2_4995] | L |
| KYYGNGVTCGKHSCSVNWGQAFSCVWSHLANFGHGKC* [Pep-2_4938] | L |
| KYYGNGVTCGKHSCSVNWGQAFSCWVSHLANFGHGKC* [GROUP L-UM-15] | L |
| KYYGNGVTCGKHSCSVNWGQAFSCYASHLANFGHGKC* [Pep-2_5691] | L |
| KYYGNGVTCGKHSCSVNWGQAFSCYMSHLANFGHGAC* [GROUP L-UM-9] | L |
| KYYGNGVTCGKHSCSVNWGQAFVCSNSHLANFGHGKC* [Pep-2_3639] | L |
| KYYGNGVTCGKHSCSVNWGQAFVCSVDHLANFGHGKC* [Pep-2_3644] | E |
| KYYGNGVTCGKHSCSVNWGQAFVCSVRHLANFGHGKC* [Pep-2_3643] | L |
